The values below come from US10285983B2, “3-(1H-pyrrolo[2,3-B]pyridin-2-yl)-1H-pyrazolo[3,4-B] pyridines and therapeutic uses thereof” (Samumed, LLC, priority 2015, dated 2019).

The term EC50 denotes the concentration that produces a half-maximal response. A high value points to weaker potency. By inhibition is commonly meant the change of the read-out against control, counted positive when it falls.

Holding throughout (type): cell-based
One test relates to SW480 colon cancer cells. Nature of the test: Cell viability assay (CellTiter-Blue). The conditions noted are these: Homo sapiens, 96 h, four days; for inhibition at 10 µM: given for EC50 >10 μM, read-out: percent inhibition at 10 μM. As for the experimental part: Representative compounds were screened using the following assay procedure to assess the effect on cell viability as described below.
Each compound was dissolved in DMSO as a 10 mM stock and used to prepare compound source plates. Serial dilution (1:3, 8-point dose-response curves from 10 μM to 0.0045 μM) and compound transfer was performed using the ECHO 550 (Labcyte, Sunnyvale, Calif.) into 96-well clear bottom, black-walled plates (Corning-Costar).
Approximately 2×10^3 SW480 colon cancer cells were seeded into each well and allowed to incubate in the presence or absence of compound for four days at 37° C./5% CO2. Eight replicates of DMSO-treated cells served as controls and cells treated with compound were performed in duplicate.
After incubation, 20 μL of CellTiter-Blue (Promega) was added to each well allowed to incubate for approximately 3 hours. This reagent was a buffered solution which contains resazurin, metabolically active cells were able to reduce rezarurin (blue) into resorufin (pink) which was highly fluorescent. This measured fluorescence was used as a readout for cell viability.
After incubation, the plates were read at Ex 560 nm Em 590 nm (Cytation 3, BioTek). Dose-response curves were generated and EC50 concentration values were calculated using non-linear regression curve fit in the GraphPad Prism (San Diego, Calif.) or Dotmatics' Studies Software (Bishops Stortford, UK). For EC50 of >10 μM, the percent inhibition at 10 μM is provided.
For orientation: Resazurin is reduced to fluorescent resorufin, in cell work by metabolically active cells.

For test [1], the system named is primary human fibroblasts derived from IPF patients (LL29 cells). Nature of the test: Inhibition of fibrotic process, αSMA staining in TGF-β1 treated LL29 fibroblasts. The conditions noted are these: Fibroblast, 96 h, TGF-β1 20 ng/mL, 4 days; for EC50: % αSMA positive cells; for inhibition at 10 µM: given for EC50 >10 μM, read-out: percent inhibition at 10 μM. From the text:
Representative compounds were screened using primary human fibroblasts (derived from IPF patients) treated with TGF-β1 to determine their ability to inhibit the fibrotic process.
Primary human fibroblasts derived from IPF patients (LL29 cells) [^1Xiaoqiu Liu, et. al., “Fibrotic Lung Fibroblasts Show Blunted Inhibition by cAMP Due to Deficient cAMP Response Element-Binding Protein Phosphorylation”, Journal of Pharmacology and Experimental Therapeutics (2005), 315(2), 678-687; ^2Watts, K. L., et. al., “RhoA signaling modulates cyclin D1 expression in human lung fibroblasts; implications for idiopathic pulmonary fibrosis”, Respiratory Research (2006), 7(1), 88] were obtained from American Type Culture Collection (ATCC) and expanded in F12 medium supplemented with 15% Fetal Bovine Serum and Penicillin/Streptomycin.
Each compound was dissolved in DMSO as a 10 mM stock and used to prepare compound source plates. Serial dilution (1:2, 11-point dose-response curves from […] to […]) and compound transfer was performed using the ECHO 550 (Labcyte, Sunnyvale, Calif.) into 384-well clear bottom assay plates (Greiner Bio-One) with appropriate DMSO backfill for a final DMSO concentration of 0.1%. LL29 cells are plated at 1,500 cells/well in 80 μL/well F12 medium supplemented with 1% Fetal Bovine Serum. One hour after addition of the cells, TGF-β1 (Peprotech; 20 ng/mL) was added to the plates to induce fibrosis (ref. 1 and 2 above). Wells treated with TGF-β1 and containing DMSO were used as controls. Cells were incubated at 37° C. and 5% CO2 for 4 days. Following incubation for 4 days, SYTOX green nucleic acid stain (Life Technologies [Thermo Fisher Scientific]) was added to the wells at a final concentration of 1 μM and incubated at room temperature for 30 min. Cells were then fixed using 4% formaldehyde (Electron Microscopy Sciences), washed 3 times with PBS followed by blocking and permeabilization using 3% Bovine Serum Albumin (BSA; Sigma) and 0.3% Triton X-100 (Sigma) in PBS. Cells were then stained with antibody specific to α-smooth muscle actin (αSMA; Abcam) (ref. 1 and 2 above) in 3% Bovine Serum Albumin (BSA; Sigma) and 0.3% Triton X-100 (Sigma) in PBS, and incubated overnight at 4° C. Cells were then washed 3 times with PBS, followed by incubation with Alexa Flor-647 conjugated secondary antibody (Life Technologies [Thermo Fisher Scientific]) and DAPI at room temperature for 1 hour. Cells were then washed 3 times with PBS and plates were sealed for imaging. αSMA staining was imaged by excitation at 630 nm and emission at 665 nm and quantified using the Compartmental Analysis program on the CellInsight CX5 (Thermo Scientific). Dead or apoptotic cells were excluded from analysis based on positive SYTOX green staining. % of total cells positive for αSMA were counted in each well and normalized to the average of 11 wells treated with TGF-β1 on the same plate using Dotmatics' Studies Software. The normalized averages (fold change over untreated) of 3 replicate wells for each compound concentration were used to create dose-responses curves and EC50 values were calculated using non-linear regression curve fit in the Dotmatics' Studies Software. For EC50 of >10 μM, the percent inhibition at 10 μM is provided.

The test system of test [2] is IL-6 (THP-1 human monocyte cell line). As to the kind of experiment: IL-6 inhibition in LPS-stimulated THP-1 cells (HTRF). The conditions noted are these: LPS 500 ng/mL; for EC50: 22 hours, IL6 HTRF; for inhibition at 10 µM: given for EC50 >10 μM, read-out: percent inhibition at 10 μM. As for the experimental part:
Human monocyte cell line (THP-1 cells; Catalog # TIB-202, ATCC, Manassas, Va.) were cultured in Roswell Park Memorial Institute (RPMI) 1640 Medium (Catalog #21870-100, Buffalo, N.Y.) with 1% L-glutamine, 1% HEPES, 1% Sodium Pyruvate, 2% Sodium Bicarbonate supplemented with 100 units/mL penicillin, 50 μg/mL streptomycin, 2-mercaptoethanol (0.05 mM) [basal medium] and 10% fetal bovine serum (Catalog #16140089, Life Technologies, Carlsbad, Calif.) at 37° C. and 5% CO2.
THP-1 cells were cultured in basal media with 1% FBS for 24 hours before the start of the assay. Each compound was dissolved in DMSO as a 10 mM stock and used to prepare compound source plates. Serial dilution (1:3, 10-point dose-response curves starting from […]) and compound transfer was performed using the ECHO 550 (Labcyte, Sunnyvale, Calif.) into 384-well white low volume assay plates (Greiner Bio-One) with appropriate DMSO backfill for a final DMSO concentration of 0.1%. THP-1 cells were plated at 5000 cells/well in the 384-well plates and incubated at 37° C. for 2 h. 500 ng/mL of LPS was added after 2 hours and cells were incubated for another 22 hours at 37° C. Plates were spun in a centrifuge for 1 minute at 10,000 rpm and a mixture of anti-IL6 XL665, and anti-IL6 Cryptate diluted in reconstitution buffer (Cisbio Inc.) was added to each well. Following incubation for 3 hrs at room temperature, Homogeneous Time-Resolved Fluorescence (HTRF) was measured using the Envision (Perkin Elmer) at 665 nm and […]. The ratio of fluorescence at 665 nm to 620 nm was used as a readout for IL6 quantification. All samples were processed in duplicate. Readings were normalized to DMSO treated cells and normalized activities were utilized for EC50 calculations using the dose-response log (inhibitor) vs. response—variable slope (four parameters) nonlinear regression feature available in GraphPad Prism 5.0 (or Dotmatics). For EC50 of >10 μM, the percent inhibition at 10 μM is provided.
On the technique in general: TR-FRET usually uses a lanthanide donor and a delayed reading to cut background.

Structures are written as SMILES.

In the case of `Cc1ccncc1-c1cnc2[nH]nc(-c3cc4c(-c5ccncc5)ccnc4[nH]3)c2c1` [Compound 117, 5-(4-Methylpyridin-3-yl)-3-(4-(pyridin-4-yl)-1H-pyrrolo[2,3-b]pyridin-2-yl)-1H-pyrazolo[3,4-b]pyridine], the EC50 (with SW480 colon cancer cells; in test [1]; in test [2]) was over 10 µM each time. In addition, the inhibition at 10 µM is 10.1% in the test with SW480 colon cancer cells, 52.9% in test [1] and 17.1% in test [2].

Regarding `CC(C)CC(=O)Nc1cncc(-c2cnc3[nH]nc(-c4cc5c(-c6ccc(F)cc6)ccnc5[nH]4)c3c2)c1` [Compound 30, N-(5-(3-(4-(4-Fluorophenyl)-1H-pyrrolo[2,3-b]pyridin-2-yl)-1H-pyrazolo [3,4-b]pyridin-5-yl)pyridin-3-yl)-3-methylbutanamide], the EC50 (in the test on SW480 colon cancer cells; in test [1]; in test [2]) was over 10 µM each time. In addition, the inhibition at 10 µM with SW480 colon cancer cells was determined as 18.5%; in test [1] it was 12.8%; in test [2] it was 0%.

As for `O=C(Nc1cncc(-c2cnc3[nH]nc(-c4cc5c(-c6ccccc6F)ccnc5[nH]4)c3c2)c1)C1CCCC1` [Compound 78, N-(5-(3-(4-(2-Fluorophenyl)-1H-pyrrolo[2,3-b]pyridin-2-yl)-1H-pyrazolo [3,4-b]pyridin-5-yl)pyridin-3-yl)cyclopentanecarboxamide], the EC50 in the test on SW480 colon cancer cells was over 10 µM; in test [1], 7.09 µM; in test [2], 0.627 µM. Also, the inhibition at 10 µM in the test with SW480 colon cancer cells amounted to 11.3%.

As to `Fc1ccc(-c2ccnc3[nH]c(-c4n[nH]c5ncc(-c6cncc(CN7CCCC7)c6)cc45)cc23)cc1` [Compound 42, 3-(4-(4-Fluorophenyl)-1H-pyrrolo[2,3-b]pyridin-2-yl)-5-(5-(pyrrolidin-1-ylmethyl)pyridin-3-yl)-1H-pyrazolo[3,4-b]pyridine], the EC50 in the test with SW480 colon cancer cells was over 10 µM; in test [1] it was 4.98 µM; in test [2], over 10 µM. For the same compound, the inhibition at 10 µM with SW480 colon cancer cells amounted to 24.8%; in test [2] it was 36.8%.

On to `O=C(Nc1cncc(-c2cnc3[nH]nc(-c4cc5c(-c6ccncc6)ccnc5[nH]4)c3c2)c1)c1ccccc1` [Compound 123, N-(5-(3-(4-(Pyridin-4-yl)-1H-pyrrolo[2,3-b]pyridin-2-yl)-1H-pyrazolo[3,4-b]pyridin-5-yl)pyridin-3-yl)benzamide], for which the EC50 (with SW480 colon cancer cells; in test [1]; in test [2]) was over 10 µM in each case. Moreover, the results for the inhibition at 10 µM (with SW480 colon cancer cells; in test [1]; in test [2]) were 12%, 0% and 15.1%, respectively.

For `CC(C)Nc1cncc(-c2cnc3[nH]nc(-c4cc5c(-c6ccccc6F)ccnc5[nH]4)c3c2)c1` [Compound 68, 5-(3-(4-(2-Fluorophenyl)-1H-pyrrolo[2,3-b]pyridin-2-yl)-1H-pyrazolo[3,4-b]pyridin-5-yl)-N-isopropylpyridin-3-amine], the 50% effective concentration (EC50) is over 10 µM in the test with SW480 colon cancer cells, 8.54 µM in test [1] and over 10 µM in test [2]. For the same compound, the inhibition at 10 µM was found to be 1% in the test with SW480 colon cancer cells and 42.9% in test [2].

For the compound `c1cc(N2CCCCC2)c2cc(-c3n[nH]c4ncc(-c5cncc(CN6CCCC6)c5)cc34)[nH]c2n1` [Compound 182, 3-(4-(Piperidin-1-yl)-1H-pyrrolo[2,3-b]pyridin-2-yl)-5-(5-(pyrrolidin-1-ylmethyl)pyridin-3-yl)-1H-pyrazolo[3,4-b]pyridine], the concentration giving a half-maximal response (EC50) is over 10 µM with SW480 colon cancer cells, over 10 µM in test [1] and 0.463 µM in test [2]. Besides, the inhibition at 10 µM in the test with SW480 colon cancer cells stood at 26%; in test [1] it was 21.9%.

In the case of `Nc1cncc(-c2cnc3[nH]nc(-c4cc5c(-c6ccccc6F)ccnc5[nH]4)c3c2)c1` [Compound 59, 5-(3-(4-(2-Fluorophenyl)-1H-pyrrolo[2,3-b]pyridin-2-yl)-1H-pyrazolo[3,4-b]pyridin-5-yl)pyridin-3-amine], the EC50 (in the test on SW480 colon cancer cells; in test [1]; in test [2]) was over 10 µM each time. The inhibition at 10 µM was 20.1% with SW480 colon cancer cells, 0% in test [1] and 34.8% in test [2].

As for `CCNCc1cncc(-c2cnc3[nH]nc(-c4cc5c(-c6cccnc6)ccnc5[nH]4)c3c2)c1` [Compound 90, N-((5-(3-(4-(Pyridin-3-yl)-1H-pyrrolo[2,3-b]pyridin-2-yl)-1H-pyrazolo[3,4-b]pyridin-5-yl)pyridin-3-yl)methyl)ethanamine], the EC50 in the test on SW480 colon cancer cells is over 10 µM; in test [1], over 10 µM; in test [2] it was 5.36 µM. Also, the inhibition at 10 µM in the test on SW480 colon cancer cells is 17%; in test [1] it was 5.1%.

Turning to `O=C(Nc1cncc(-c2cnc3[nH]nc(-c4cc5cccnc5[nH]4)c3c2)c1)C1CCCCC1` [Compound 275, N-(5-(3-(1H-Pyrrolo[2,3-b]pyridin-2-yl)-1H-pyrazolo[3,4-b]pyridin-5-yl)pyridin-3-yl)cyclohexanecarboxamide], the half-maximal effective concentration (EC50) in the test on SW480 colon cancer cells amounted to 2.43 µM; in test [1], 1.56 µM; in test [2], 0.063 µM.
